Key:
Format in all cases: in vivo
[1] = tested on: barnyardgrass (Echinochloa crus-galli); experiment: Test C preemergence; settings: Echinochloa crus-galli, pre-emergence, read-out: Plant response rating, Barnyardgrass
How it was run: (§1)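 0-100 visual injury score (100 = complete control), assessed at 13-15 d after treatment against controls; surfactant-containing solvent formulation applied preemergence to seeded loam-sand soil or sprayed onto 1- to 4-leaf greenhouse plants.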

[2] = tested on: galium (catchweed bedstraw, Galium aparine); experiment: Test C preemergence; settings: Galium, pre-emergence, 336 h, scale 0 to 100, read-out: Plant response rating, Galium
How it was run: as §1

[3] = tested on: johnsongrass (Sorghum halepense); experiment: Test C preemergence; settings: Sorghum halepense, pre-emergence, 336 h, scale 0 to 100, read-out: Plant response rating, Johnsongrass
How it was run: as §1

[4] = tested on: Italian ryegrass (Lolium multiflorum); experiment: Test C postemergence; settings: Lolium multiflorum, post-emergence, 336 h, Postemergence, scale 0 to 100, read-out: Plant response rating, Ryegrass, Italian
[5] = tested on: barnyardgrass (Echinochloa crus-galli); experiment: Test C postemergence; settings: Echinochloa crus-galli, post-emergence, Postemergence, scale 0 to 100, read-out: Plant response rating, Barnyardgrass
[6] = tested on: blackgrass (Alopecurus myosuroides); experiment: Test C postemergence; settings: Alopecurus myosuroides, post-emergence, 336 h, Postemergence, scale 0 to 100, read-out: Plant response rating, Blackgrass
[7] = tested on: chickweed (common chickweed, Stellaria media); experiment: Test C postemergence; settings: Stellaria media, post-emergence, Postemergence, scale 0 to 100, read-out: Plant response rating, Chickweed
corn (Zea mays) = experiment: Test C postemergence; settings: Zea mays, post-emergence, 336 h, Postemergence, scale 0 to 100
[8] = tested on: galium (catchweed bedstraw, Galium aparine); experiment: Test C postemergence; settings: Galium, post-emergence, 336 h, Postemergence, scale 0 to 100, read-out: Plant response rating, Galium
[9] = tested on: giant foxtail (Setaria faberii); experiment: Test C postemergence; settings: Setaria faberi, post-emergence, 336 h, Postemergence, scale 0 to 100, read-out: Plant response rating, Foxtail, Giant
[10] = tested on: johnsongrass (Sorghum halepense); experiment: Test C postemergence; settings: Sorghum halepense, post-emergence, 336 h, Postemergence, scale 0 to 100, read-out: Plant response rating, Johnsongrass
[11] = tested on: lambsquarters (Chenopodium album); experiment: Test C postemergence; settings: Chenopodium album, post-emergence, 336 h, Postemergence, scale 0 to 100, read-out: Plant response rating, Lambsquarters
[12] = tested on: large (Lg) crabgrass (Digitaria sanguinalis); experiment: Test C postemergence; settings: Digitaria sanguinalis, post-emergence, 336 h, Postemergence, scale 0 to 100, read-out: Plant response rating, Crabgrass, Large
[13] = tested on: morningglory (Ipomoea coccinea); experiment: Test C postemergence; settings: Ipomoea, post-emergence, 336 h, Postemergence, scale 0 to 100, read-out: Plant response rating, Morningglory
[14] = tested on: oilseed rape (Brassica napus); experiment: Test C postemergence; settings: Brassica napus, post-emergence, Postemergence, scale 0 to 100, read-out: Plant response rating, Oilseed Rape
[15] = tested on: ragweed (common ragweed, Ambrosia elatior); experiment: Test C postemergence; settings: Ambrosia artemisiifolia, post-emergence, 336 h, Postemergence, scale 0 to 100, read-out: Plant response rating, Ragweed
soybean (Glycine max) = experiment: Test C postemergence; settings: Glycine max, post-emergence, Postemergence, scale 0 to 100, read-out: Plant response rating, Soybean
[16] = tested on: velvetleaf (Abutilon theophrasti); experiment: Test C postemergence; settings: Abutilon theophrasti, post-emergence, Postemergence, scale 0 to 100, read-out: Plant response rating, Velvetleaf
[17] = tested on: waterhemp (common waterhemp, Amaranthus rudis); experiment: Test C postemergence; settings: Amaranthus tuberculatus, post-emergence, Postemergence, scale 0 to 100, read-out: Plant response rating, Waterhemp
wild oat (Avena fatua) = experiment: Test C postemergence; settings: Avena fatua, post-emergence, Postemergence, scale 0 to 100, read-out: Plant response rating, Oat, Wild
[18] = tested on: winter wheat (Triticum aestivum); experiment: Test C postemergence; settings: Triticum aestivum, post-emergence, 336 h, Postemergence, scale 0 to 100, read-out: Plant response rating, Wheat
[19] = tested on: yellow nutsedge (Cyperus esculentus); experiment: Test C postemergence; settings: Cyperus, post-emergence, 336 h, Postemergence, scale 0 to 100, read-out: Plant response rating, Nutsedge, Yellow

Structure (SMILES): N#Cc1cccc(Oc2ncc(C(F)(F)F)cn2)c1Oc1ncc(Cl)cn1 [Compound 39, 2-[(5-chloro-2-pyrimidinyl)oxy]-3-[[5-(trifluoromethyl)-2-pyrimidinyl]oxy]-benzonitrile]
- pest or weed control at 31 g/ha ([1]; 31 g ai/ha, preemergence, scale 0 to 100): 95%
- pest or weed control at 62 g/ha ([1]; 62 g ai/ha, preemergence, scale 0 to 100): 95%
- pest or weed control at 125 g/ha ([1]; 125 g ai/ha, preemergence, scale 0 to 100): 100%
- pest or weed control at 16 g/ha ([1]; Preemergence, 16 g ai/ha, scale 0 to 100 (0 no effect, 100 complete control)): 65%
- pest or weed control at 31 g/ha ([2]; 31 g ai/ha, preemergence): 90%
- pest or weed control at 62 g/ha ([2]; 62 g ai/ha, preemergence): 85%
- pest or weed control at 125 g/ha ([2]; 125 g ai/ha, preemergence): 100%
- pest or weed control at 16 g/ha ([2]; Preemergence, 16 g ai/ha): 85%
- pest or weed control at 31 g/ha ([3]; 31 g ai/ha, preemergence): 65%
- pest or weed control at 62 g/ha ([3]; 62 g ai/ha, preemergence): 85%
- pest or weed control at 125 g/ha ([3]; 125 g ai/ha, preemergence): 100%
- pest or weed control at 16 g/ha ([3]; Preemergence, 16 g ai/ha): 25%
- pest or weed control at 31 g/ha ([4]; 31 g ai/ha): 0%
- pest or weed control at 62 g/ha ([4]; 62 g ai/ha): 5%
- pest or weed control at 125 g/ha ([4]; 125 g ai/ha): 10%
- pest or weed control at 16 g/ha ([5]; 16 g ai/ha): 5%
- pest or weed control at 31 g/ha ([5]; 31 g ai/ha): 15%
- pest or weed control at 62 g/ha ([5]; 62 g ai/ha): 15%
- pest or weed control at 125 g/ha ([5]; 125 g ai/ha): 25%
- pest or weed control at 16 g/ha ([6]; 16 g ai/ha): 5%
- pest or weed control at 31 g/ha ([6]; 31 g ai/ha): 10%
- pest or weed control at 62 g/ha ([6]; 62 g ai/ha): 15%
- pest or weed control at 125 g/ha ([6]; 125 g ai/ha): 30%
- pest or weed control at 16 g/ha ([7]; 16 g ai/ha): 60%
- pest or weed control at 31 g/ha ([7]; 31 g ai/ha): 60%
- pest or weed control at 62 g/ha ([7]; 62 g ai/ha): 90%
- pest or weed control at 125 g/ha ([7]; 125 g ai/ha): 90%
- Corn plant response rating (crop injury, 0 = no effect, 100 = complete kill) at 16 g/ha (corn (Zea mays); 16 g ai/ha): 5%
- Corn plant response rating (crop injury, 0 = no effect, 100 = complete kill) at 31 g/ha (corn (Zea mays); 31 g ai/ha): 10%
- Corn plant response rating (crop injury, 0 = no effect, 100 = complete kill) at 62 g/ha (corn (Zea mays); 62 g ai/ha): 10%
- Corn plant response rating (crop injury, 0 = no effect, 100 = complete kill) at 125 g/ha (corn (Zea mays); 125 g ai/ha): 20%
- pest or weed control at 16 g/ha ([8]; 16 g ai/ha): 60%
- pest or weed control at 31 g/ha ([8]; 31 g ai/ha): 80%
- pest or weed control at 62 g/ha ([8]; 62 g ai/ha): 80%
- pest or weed control at 125 g/ha ([8]; 125 g ai/ha): 90%
- pest or weed control at 16 g/ha ([9]; 16 g ai/ha): 10%
- pest or weed control at 31 g/ha ([9]; 31 g ai/ha): 10%
- pest or weed control at 62 g/ha ([9]; 62 g ai/ha): 10%
- pest or weed control at 125 g/ha ([9]; 125 g ai/ha): 20%
- pest or weed control at 16 g/ha ([10]; 16 g ai/ha): 5%
- pest or weed control at 31 g/ha ([10]; 31 g ai/ha): 15%
- pest or weed control at 62 g/ha ([10]; 62 g ai/ha): 10%
- pest or weed control at 125 g/ha ([10]; 125 g ai/ha): 10%
- pest or weed control at 16 g/ha ([11]; 16 g ai/ha): 75%
- pest or weed control at 31 g/ha ([11]; 31 g ai/ha): 70%
- pest or weed control at 62 g/ha ([11]; 62 g ai/ha): 80%
- pest or weed control at 125 g/ha ([11]; 125 g ai/ha): 85%
- pest or weed control at 16 g/ha ([12]; 16 g ai/ha): 5%
- pest or weed control at 31 g/ha ([12]; 31 g ai/ha): 5%
- pest or weed control at 62 g/ha ([12]; 62 g ai/ha): 10%
- pest or weed control at 125 g/ha ([12]; 125 g ai/ha): 10%
- pest or weed control at 31 g/ha ([13]; 31 g ai/ha): 75%
- pest or weed control at 62 g/ha ([13]; 62 g ai/ha): 90%
- pest or weed control at 125 g/ha ([13]; 125 g ai/ha): 85%
- plant injury at 31 g/ha ([14]; 31 g ai/ha): 5%
- plant injury at 62 g/ha ([14]; 62 g ai/ha): 40%
- plant injury at 125 g/ha ([14]; 125 g ai/ha): 40%
- pest or weed control at 31 g/ha ([15]; 31 g ai/ha): 65%
- pest or weed control at 62 g/ha ([15]; 62 g ai/ha): 60%
- pest or weed control at 125 g/ha ([15]; 125 g ai/ha): 85%
- plant injury at 31 g/ha (soybean (Glycine max); 31 g ai/ha): 60%
- plant injury at 62 g/ha (soybean (Glycine max); 62 g ai/ha): 95%
- plant injury at 125 g/ha (soybean (Glycine max); 125 g ai/ha): 70%
- pest or weed control at 31 g/ha ([16]; 31 g ai/ha): 55%
- pest or weed control at 62 g/ha ([16]; 62 g ai/ha): 60%
- pest or weed control at 125 g/ha ([16]; 125 g ai/ha): 60%
- pest or weed control at 31 g/ha ([17]; 31 g ai/ha): 75%
- pest or weed control at 62 g/ha ([17]; 62 g ai/ha): 85%
- pest or weed control at 125 g/ha ([17]; 125 g ai/ha): 95%
- pest or weed control at 31 g/ha (wild oat (Avena fatua); 31 g ai/ha): 5%
- pest or weed control at 62 g/ha (wild oat (Avena fatua); 62 g ai/ha): 10%
- pest or weed control at 125 g/ha (wild oat (Avena fatua); 125 g ai/ha): 15%
- plant injury at 31 g/ha ([18]; 31 g ai/ha): 0%
- plant injury at 62 g/ha ([18]; 62 g ai/ha): 5%
- plant injury at 125 g/ha ([18]; 125 g ai/ha): 0%
- pest or weed control at 31 g/ha ([19]; 31 g ai/ha): 5%
- pest or weed control at 62 g/ha ([19]; 62 g ai/ha): 5%
- pest or weed control at 125 g/ha ([19]; 125 g ai/ha): 5%

Source: patent US20170190671A1, “BIS(ARYL)CATECHOL DERIVATIVES AS HERBICIDES” (E I DU PONT DE NEMOURS AND COMPANY, priority 2014, published 2017)
